Reference: article PMC12668289 (RSC Chemical Biology, 2025)
“And” between values parts separate entries of the source, which are not always exact repeats. Equal entries are not always repeated. Where two headings read alike, the source gives them in different places.

Legend:
[1] = target: T1, Fluc-containing HEK293T crude lysate (Photinus pyralis, UniProt P08659, K549A/L550V/N119G/N50D/S548I); assay: BL assay of crude lysate of HEK293T expressing Fluc; format: cell-based
T1 construct: expressed in transfected cells; host or cells: HEK293T, transient transfection with pGL4.13 [luc2/SV40]
T1 sequence (P08659 whole entry N50D/N119G/S548I/K549A/L550V): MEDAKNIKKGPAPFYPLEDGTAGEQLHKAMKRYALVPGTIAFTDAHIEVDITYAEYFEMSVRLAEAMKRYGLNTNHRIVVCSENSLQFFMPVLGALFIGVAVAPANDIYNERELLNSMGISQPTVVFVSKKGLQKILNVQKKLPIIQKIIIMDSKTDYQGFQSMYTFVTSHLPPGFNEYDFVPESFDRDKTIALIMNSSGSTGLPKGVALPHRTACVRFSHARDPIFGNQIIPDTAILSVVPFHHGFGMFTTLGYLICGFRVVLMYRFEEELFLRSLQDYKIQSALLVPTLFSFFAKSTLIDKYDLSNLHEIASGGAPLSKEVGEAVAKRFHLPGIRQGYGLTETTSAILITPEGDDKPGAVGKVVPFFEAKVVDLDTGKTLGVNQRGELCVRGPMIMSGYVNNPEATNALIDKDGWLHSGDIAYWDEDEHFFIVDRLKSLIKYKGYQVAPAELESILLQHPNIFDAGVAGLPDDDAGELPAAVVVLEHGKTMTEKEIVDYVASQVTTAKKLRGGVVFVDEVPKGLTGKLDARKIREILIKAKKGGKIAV

Pmluc-N230S [2] = assay: BL emission spectra of luciferase-luciferin reactions; format: biochemical, Pyrocoelia miyako; details: 100 mM HEPES pH 8.0, 25 °C
Experimental: were selected to investigate their BL emission spectra with luciferases including Fluc, SLR, Pmluc-WT, Pmluc-N230S using an integrating sphere-based multichannel spectrometer with a charge-coupled device (CCD) detector.
The reactions were initiated by mixing 25 µl of premixed solution of luciferases/D-LH 2 analogues with 125 µl of 3 mM ATP and 6 mM MgCl2 in 100 mM HEPES-NaOH (pH 8.0).

Pmluc-N230S (HepG2) = assay: Sensitivity of live reporter cell detection (LOD of cell number); format: cell-based, human
Pmluc-N230S (HeLa) = assay: as above; format: cell-based, human; details: for Limit of detection (LOD), cells: Pmluc-N230S (HeLa); for Sensitivity higher than that of 2a: Pmluc-N230S expressing HeLa
Fluc-ApCPP complex = Fluc-ApCPP complex (Photinus pyralis, UniProt P08659); assay: biochemical; format: binding; details: ITC; for N site / G (free energy of binding) / H (enthalpy of binding): Fluc-ApCCP; for Kd / G (free energy of binding) / H (enthalpy of binding): 25 °C; for Kd: preformed Fluc-ApCPP complex, read-out: Dissociation constant (Kd) Fluc-ApCPP: Luciferin
Sequence of Fluc-ApCPP complex (P08659 whole entry, one chain of several): as the sequence (P08659 whole entry N50D/N119G/S548I/K549A/L550V) above, with D50N, G119N, I548S, A549K, V550L counted along it

Fluc [3] = target: T2, Fluc (Photinus pyralis, UniProt P08659); assay: Stopped-flow luminometry, single turnover light formation and decay; format: biochemical
T2 sequence (P08659 whole entry): as the sequence (P08659 whole entry N50D/N119G/S548I/K549A/L550V) above, with D50N, G119N, I548S, A549K, V550L counted along it
Experimental: 1.5 Bioluminescence characterizations […]
One syringe was filled with a solution of 50 µM Fluc, 3 mM ATP, and 6 mM
in both syringes were mixed by a stopped-flow device and measured the light emission at 25 °C in triplicate. […]
2.8 Investigation of bioluminescence kinetics using stopped-flow luminometry
reactions were investigated using a stopped-flow spectrophotometer (employing a light-off mode for detecting the luminescence). One

Fluc [4] = target: T2, Fluc; details: Fluc; cited from earlier work
Pmluc-N230S [5] = assay: Stability of BL signals (half-time of light emission); format: biochemical, Pyrocoelia miyako; details: compared to 2a
Experimental: (§1) 1.5 Bioluminescence characterizations
(§2) Reactions of luciferases, including Photinus pyralis luciferase (Fluc), Phrixothrix hirtus luciferase (SLR), Pyrearinus termitilluminans […]
(§3) mM D-LH 2 analogues, 3 mM ATP, 6 mM MgCl2, and 10 µM luciferase in 0.2 ml of 100 mM HEPES-NaOH pH 8.0. The bioluminescence (BL) emission characteristics were recorded using a microplate reader in a BL mode (Thermo Scientific, Varioskan, LUX multimode). A digital single-lens reflex (DSLR) camera (Nikon D80, CCD sensor) with a 30-second exposure period was used to capture the BL images. […]

SLR = assay: as above; format: biochemical, Phrixothrix hirtus; details: compared to 2a
Experimental: as §1, §2, §3

[6] = tested on: Fluc-expressing HeLa cells; assay: Real-time BL monitoring of live cells; details: 100 µM
Experimental: plasmids and Lipofectamine 3000 were then combined and incubated for 30 minutes to allow formation of DNA and lipid complexes.
The DNA-lipid complexes were added directly to each well of the empty plate. 1.5 × 10⁵ cells (HepG2 and HeLa cells) were then suspended
in 150 µL of DMEM supplemented with 10% FBS were added directly into the transfection mixture in each well. The plate was gently
agitated to ensure even distribution and incubated at 37°C in a humidified 5% CO₂ incubator. The reporter cells obtained at this stage
were ready for further investigation of their bioluminescence with D-LH2 analogues.
2c), 10% FBS and 25 mM HEPES-NaOH (pH 7.0) was added and the BL signals were monitored with F0 (no filter) and F2 (red filter, >620
nm long-pass filter) by a luminometer (ATTO, Kronos HT, WSL-1563) and while maintaining the cells with 5% CO2 at 37 °C.

Fluc [7] = target: T2, Fluc; assay: BL emission spectra of luciferase-luciferin reactions; format: biochemical; details: 100 mM HEPES pH 8.0, 25 °C
Experimental: as §1, §2
mM D-LH 2 analogues, 3 mM ATP, 6 mM MgCl2, and 10 µM luciferase in 0.2 ml of 100 mM HEPES-NaOH pH 8.0. The bioluminescence (BL) emission characteristics were recorded using a microplate reader in a BL mode (Thermo Scientific, Varioskan, LUX multimode). […]
sphere-based multichannel spectrometer with a charge-coupled device (CCD) detector. […]

Fluc [8] = target: T2, Fluc; assay: Stability of BL signals (half-time of light emission); format: biochemical; details: compared to 2a
Experimental: as §1, §2, §3

Structure (SMILES) | Limit of detection (LOD) of expressed Fluc in crude cell lysates ([1]; HEK293T crude lysate) [ng] | Limit of detection (LOD), cells (Pmluc-N230S (HepG2); F0 (no filter)) [cells] | Limit of detection (LOD), cells (Pmluc-N230S (HepG2); F2 (red filter)) [cells] | Limit of detection (LOD), cells (Pmluc-N230S (HeLa); F0 (no filter)) [cells] | Limit of detection (LOD), cells (Pmluc-N230S (HeLa); F2 (red filter)) [cells] | N site (Fluc-ApCPP complex) | BL half-life (t1/2) longer than that of 2a (Pmluc-N230S [5]) | Kd (Fluc-ApCPP complex) [µM] | G (free energy of binding) (Fluc-ApCPP complex) [kcal/mol] | H (enthalpy of binding) (Fluc-ApCPP complex) [kcal/mol] | Time BL signals increase or are prolonged before decreasing [6] | Observed rate constant (kobs) Light decay Faster phase (Fluc [3]; Fluc single turnover, 25 °C) | Observed rate constant (kobs) Light decay Slower phase (Fluc [3]; Fluc single turnover, 25 °C) | Observed rate constant (kobs) Light formation (Fluc [3]; Fluc single turnover, 25 °C) | Bioluminescence wavelength (BLλ) (Fluc [7]) [nm] | other results
O=C(O)[C@H]1CSC(c2nc3ccc(O)cc3s2)=N1 [Compound 2a, D-luciferin, reference compound] | 51.6 | 2010 | 1880 | 1428 | 1185 | 0.32 | – | – | – | – | – | – | – | – | – | Bioluminescence wavelength (BLλ) (Pmluc-N230S [2]): 614 nm; Observed rate constant (kobs) Light decay Faster phase (Fluc [3]): 1.57 and 1.57 ± 0.02 s^−1; Observed rate constant (kobs) Light decay Slower phase (Fluc [3]): 0.29 and 0.29 ± 0.00 s^−1; Observed rate constant (kobs) Light formation (Fluc [3]): 6.64 and 6.64 ± 0.05 s^−1; Quantum yield (Fluc [4]): 41%
Cc1cc2nc(C3=N[C@@H](C(=O)O)CS3)sc2cc1O [Compound 2b, 5’-methyl-D-luciferin] | 4.6 | 752 | 247 | 630 | 812 | 0.33 | about 1.7 fold | 4 ± 0.02 | -7.60 | -4.60 | up to 13 h | 1.55 s⁻¹ and 1.55 ± 0.15 s⁻¹ | 0.27 s⁻¹ and 0.27 ± 0.00 s⁻¹ | 9.63 s⁻¹ and 9.63 ± 0.04 s⁻¹ | 605 | Sensitivity to detect Fluc better than natural D-LH2 (2a) ([1]; HEK293T crude lysate, from LOD): about 11.2 fold; Sensitivity greater than 2a ([1]; HEK293T lysate, varied substrate concentration and lysate amount): about 2 fold; Light intensity greater than 2a ([1]; fixed amount of HEK293T crude lysate, varied concentration): about 2.5 fold; Sensitivity higher than that of 2a (Pmluc-N230S (HeLa); F0 filter): about 2.3 fold; Sensitivity higher than that of 2a (Pmluc-N230S (HeLa); F2 filter): ~1.4 fold; BL half-life (t1/2) longer than that of 2a (SLR): about 1.5 fold
Cc1cc2nc(C3=N[C@@H](C(=O)O)CS3)sc2c(C)c1O [Compound 2c, 5’,7’-di-methyl-D-luciferin] | – | – | – | – | – | 3.34 | ~5.6 fold | 25.3 ± 1.1 | -6.01 | -4.85 | up to 13 h | 0.27 s⁻¹ and 0.27 ± 0.00 s⁻¹ | 0.05 s⁻¹ and 0.05 ± 0.00 s⁻¹ | 7.28 s⁻¹ and 7.28 ± 0.02 s⁻¹ | 628 | BL half-life (t1/2) longer than that of 2a (Fluc [8]): about 1.7 fold; kobs of light decay (faster and slower phases) slower than those of 2a and 2b (Fluc [3]; Fluc): 5–6 fold
